Measured values from ChEMBL document CHEMBL3525902, “In vitro metabolism of oxymetazoline: evidence for bioactivation to a reactive metabolite” (Drug Metab Dispos, 2011).

Experiments:
[1] = Drug metabolism in NADPH supplemented rabbit liver microsomes fraction assessed as 3-((4,5-dihydro-1H-imidazol-2-yl)methyl)-6-(1-hydroxy-2-methylpropan-2-yl)-2,4-dimethylphenol formation at 50 uM after 1 hr by LC-MS/MS method; type: ADME, Oryctolagus cuniculus
[2] = Retention time of the compound at 50 uM by LC-MS/MS method; type: physicochemical
Cytochrome P450 2E1 = Cytochrome P450 2E1 (Homo sapiens, UniProt P05181); assay: Activity of human recombinant CYP2E1 assessed as metabolite formation at 50 uM in presence of NADPH by LC-MS/MS method; type: ADME; conditions: recombinant enzyme
[3] = Drug metabolism in NADPH supplemented rabbit liver S9 fraction assessed as 3-((1H-imidazol-2-yl)methyl)-6-tert-butyl-2,4-dimethylphenol formation at 50 uM in presence of N-acetyl cysteine by LC-MS/MS method; type: ADME, subcellular, Oryctolagus cuniculus; conditions: s9, 50 µM
Liver microsome [4] = assay: Drug metabolism in NADPH supplemented human liver microsomes fraction assessed as 3-((1H-imidazol-2-yl)methyl)-6-(1-hydroxy-2-methylpropan-2-yl)-2,4-dimethylphenol formation at 50 uM after 1 hr by LC-MS/MS method; type: ADME
[5] = Drug metabolism in NADPH supplemented human liver S9 fraction assessed as 3-((4,5-dihydro-1H-imidazol-2-yl)methyl)-6-(1-hydroxy-2-methylpropan-2-yl)-2,4-dimethylphenol formation at 50 uM in presence of glutathione by LC-MS/MS method; type: ADME, subcellular; conditions: s9, 50 µM
[6] = Drug metabolism in NADPH supplemented rabbit liver microsomes fraction assessed as 3-((1H-imidazol-2-yl)methyl)-6-tert-butyl-2,4-dimethylphenol formation at 50 uM after 1 hr by LC-MS/MS method; type: ADME, Oryctolagus cuniculus
[7] = Drug metabolism in NADPH supplemented rat liver S9 fraction assessed as 3-((1H-imidazol-2-yl)methyl)-6-(1-hydroxy-2-methylpropan-2-yl)-2,4-dimethylphenol formation at 50 uM in presence of glutathione by LC-MS/MS method; type: ADME, subcellular; conditions: s9, 50 µM
Liver microsome [8] = assay: Drug metabolism in NADPH supplemented human liver microsomes fraction assessed as 3-((4,5-dihydro-1H-imidazol-2-yl)methyl)-6-(1-hydroxy-2-methylpropan-2-yl)-2,4-dimethylphenol formation at 50 uM after 1 hr by LC-MS/MS method; type: ADME
[9] = Drug metabolism in NADPH supplemented rabbit liver microsomes fraction assessed as 3-((1H-imidazol-2-yl)methyl)-6-(1-hydroxy-2-methylpropan-2-yl)-2,4-dimethylphenol formation at 50 uM after 1 hr by LC-MS/MS method; type: ADME, Oryctolagus cuniculus
Liver microsome [10] = assay: Drug metabolism in NADPH supplemented human liver microsomes fraction assessed as 3-((1H-imidazol-2-yl)methyl)-6-tert-butyl-2,4-dimethylphenol formation at 50 uM after 1 hr by LC-MS/MS method; type: ADME
[11] = Drug metabolism in NADPH supplemented rat liver S9 fraction assessed as 3-((4,5-dihydro-1H-imidazol-2-yl)methyl)-6-(1-hydroxy-2-methylpropan-2-yl)-2,4-dimethylphenol formation at 50 uM in presence of glutathione by LC-MS/MS method; type: ADME, subcellular; conditions: s9, 50 µM
Liver microsome [12] = assay: Drug metabolism in NADPH supplemented rat liver microsomes fraction assessed as 3-((1H-imidazol-2-yl)methyl)-6-tert-butyl-2,4-dimethylphenol formation at 50 uM after 1 hr by LC-MS/MS method; type: ADME
Cytochrome P450 2D6 = Cytochrome P450 2D6 (Homo sapiens, UniProt P10635); assay: Activity of human recombinant CYP2D6 assessed as metabolite formation at 50 uM in presence of NADPH by LC-MS/MS method; type: ADME; conditions: recombinant enzyme
Cytochrome P450 2C18 = target: T1, Cytochrome P450 2C18 (Homo sapiens, UniProt P33260); assay: Activity of human recombinant CYP2C18 assessed as metabolite formation at 50 uM in presence of NADPH by LC-MS/MS method; type: ADME; conditions: recombinant enzyme
T1 sequence (P33260 whole entry): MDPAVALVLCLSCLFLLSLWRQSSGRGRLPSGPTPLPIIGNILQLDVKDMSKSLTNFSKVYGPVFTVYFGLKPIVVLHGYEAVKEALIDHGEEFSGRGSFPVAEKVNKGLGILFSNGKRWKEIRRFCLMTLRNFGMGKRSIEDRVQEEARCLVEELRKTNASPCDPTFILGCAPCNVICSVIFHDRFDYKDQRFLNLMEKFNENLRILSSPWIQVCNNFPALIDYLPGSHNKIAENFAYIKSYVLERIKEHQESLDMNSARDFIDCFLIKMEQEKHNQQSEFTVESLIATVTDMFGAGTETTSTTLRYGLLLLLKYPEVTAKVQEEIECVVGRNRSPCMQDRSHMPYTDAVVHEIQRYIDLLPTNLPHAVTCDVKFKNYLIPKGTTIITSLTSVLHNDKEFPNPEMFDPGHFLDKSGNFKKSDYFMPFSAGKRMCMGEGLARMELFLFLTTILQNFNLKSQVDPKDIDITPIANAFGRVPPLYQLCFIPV

[13] = Drug metabolism in NADPH supplemented rabbit liver S9 fraction assessed as 3-((4,5-dihydro-1H-imidazol-2-yl)methyl)-6-(1-hydroxy-2-methylpropan-2-yl)-2,4-dimethylphenol formation at 50 uM in presence of glutathione by LC-MS/MS method; type: ADME, subcellular, Oryctolagus cuniculus; conditions: s9, 50 µM

Chain of Cytochrome P450 2D6 (P10635 whole entry): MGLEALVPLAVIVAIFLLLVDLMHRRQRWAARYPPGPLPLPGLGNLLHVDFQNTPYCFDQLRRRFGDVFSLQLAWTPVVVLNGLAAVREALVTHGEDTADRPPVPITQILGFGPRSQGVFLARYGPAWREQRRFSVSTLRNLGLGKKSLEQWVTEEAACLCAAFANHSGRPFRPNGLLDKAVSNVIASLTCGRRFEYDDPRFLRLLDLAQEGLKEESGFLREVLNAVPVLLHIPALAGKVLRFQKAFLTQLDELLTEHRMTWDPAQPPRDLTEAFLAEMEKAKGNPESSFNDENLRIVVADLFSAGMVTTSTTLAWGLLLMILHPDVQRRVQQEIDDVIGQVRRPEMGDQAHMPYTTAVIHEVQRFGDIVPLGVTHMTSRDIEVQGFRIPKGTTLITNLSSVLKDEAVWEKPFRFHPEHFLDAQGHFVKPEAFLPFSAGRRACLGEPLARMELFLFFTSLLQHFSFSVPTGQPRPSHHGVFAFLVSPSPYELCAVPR
Chain of Cytochrome P450 2E1 (P05181 whole entry): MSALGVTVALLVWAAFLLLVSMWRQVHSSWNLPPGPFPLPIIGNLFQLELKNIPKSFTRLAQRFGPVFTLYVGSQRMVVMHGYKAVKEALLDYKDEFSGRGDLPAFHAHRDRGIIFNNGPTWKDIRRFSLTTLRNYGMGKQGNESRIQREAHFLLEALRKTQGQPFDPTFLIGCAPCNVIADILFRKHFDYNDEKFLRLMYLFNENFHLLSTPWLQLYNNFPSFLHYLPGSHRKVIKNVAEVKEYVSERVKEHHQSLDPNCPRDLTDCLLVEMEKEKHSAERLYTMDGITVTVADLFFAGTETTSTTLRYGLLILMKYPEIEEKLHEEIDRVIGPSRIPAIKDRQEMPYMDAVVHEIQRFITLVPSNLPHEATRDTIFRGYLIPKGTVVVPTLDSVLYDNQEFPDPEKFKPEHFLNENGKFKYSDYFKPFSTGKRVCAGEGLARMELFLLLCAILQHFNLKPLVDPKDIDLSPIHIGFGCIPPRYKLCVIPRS

Compound: Cc1cc(C(C)(C)C)c(O)c(C)c1CC1=NCCN1 [OXYMETAZOLINE]
- Drug metabolism [1]: metabolite_detected
- Retention_time [2]: 12.2 min
- Drug metabolism (Cytochrome P450 2E1): metabolite_not_detected
- Drug metabolism [3]: metabolite_detected
- Drug metabolism (Liver microsome [4]): metabolite_detected
- Drug metabolism [5]: metabolite_detected
- Drug metabolism [6]: metabolite_detected
- Drug metabolism [7]: metabolite_detected
- Drug metabolism (Liver microsome [8]): metabolite_detected
- Drug metabolism [9]: metabolite_detected
- Drug metabolism (Liver microsome [10]): metabolite_detected
- Drug metabolism [11]: metabolite_detected
- Drug metabolism (Liver microsome [12]): metabolite_detected
- Drug metabolism (Cytochrome P450 2D6): metabolite_not_detected
- Drug metabolism (Cytochrome P450 2C18): metabolite_not_detected
- Drug metabolism [13]: metabolite_detected
